According to PubChem BioAssay (NCI):
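Following 48 hours of exposure in 96-well plates, responses at five concentrations were used to interpolate endpoints linearly. TGI: concentration producing complete growth inhibition.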

Tests used:
Test in all cases: inhibition of tumour cell growth, NCI panel, 48 h
[1] = tested on: SK-MEL-5 melanoma
[2] = tested on: KM12 colon
[3] = tested on: SF-539 CNS
[4] = tested on: 786-0 renal
[5] = tested on: UO-31 renal
[6] = tested on: NCI-H226 lung
[7] = tested on: HCT-15 colon
[8] = tested on: HCT-116 colon
[9] = tested on: K-562 leukemia
[10] = tested on: MALME-3M melanoma
[11] = tested on: OVCAR-8 ovarian
[12] = tested on: NCI/ADR-RES ovarian
[13] = tested on: MDA-MB-435
[14] = tested on: HOP-92 NSCLC

## COc1ccc(O[C@H](COCc2ccccc2)C[C@@H]2COC(C)(C)O2)cc1
[1]
  TGI: > 100 µM
[2]
  TGI: > 100 µM
[3]
  TGI: > 100 µM
[4]
  TGI: > 100 µM
[5]
  TGI: > 100 µM
[6]
  TGI: > 100 µM
[7]
  TGI: > 100 µM
[8]
  TGI: > 100 µM
[9]
  TGI: > 100 µM
[10]
  TGI: > 100 µM
[11]
  TGI: > 100 µM
[12]
  TGI: > 100 µM
[13]
  TGI: > 100 µM

## Cc1c(C(=O)N2CCN(c3ccc([N+](=O)[O-])cc3)CC2)[n+](=O)c2cc(Cl)c(Cl)cc2n1[O-]
[1]
  TGI: 24.6 µM
[2]
  TGI: > 100 µM
[3]
  TGI: 32.6 µM
[4]
  TGI: 30.8 µM
[14]
  TGI: 34.4 µM
[7]
  TGI: 36.2 µM
[8]
  TGI: 40.5 µM
[9]
  TGI: > 100 µM
[10]
  TGI: 48.4 µM
[11]
  TGI: 33 µM
[12]
  TGI: 32.7 µM
[13]
  TGI: > 100 µM

## NC(=O)c1nnc2cc(F)ccc2c1N
[1]
  TGI: > 100 µM
[2]
  TGI: > 100 µM
[3]
  TGI: > 100 µM
[4]
  TGI: > 100 µM
[5]
  TGI: > 100 µM
[6]
  TGI: > 100 µM
[7]
  TGI: > 100 µM
[8]
  TGI: > 100 µM
[9]
  TGI: > 100 µM
[10]
  TGI: > 100 µM
[11]
  TGI: > 100 µM
[12]
  TGI: > 100 µM
[13]
  TGI: > 100 µM

## Cc1ccnc2[nH]c(-c3cccc(Cl)c3)cc(=O)c12
[1]
  TGI: > 35.7 µM
[2]
  TGI: > 47.8 µM
[4]
  TGI: > 100 µM
[14]
  TGI: > 100 µM
[5]
  TGI: > 70.2 µM
[6]
  TGI: > 100 µM
[7]
  TGI: > 100 µM
[11]
  TGI: > 100 µM
[12]
  TGI: > 100 µM

## COc1ccc2[nH]c(Cl)c(/C=C3/C(=O)Nc4cc(C)c(OC)cc43)c2c1
[1]
  TGI: 6.32 µM
[2]
  TGI: 23.2 µM
[3]
  TGI: 4.8 µM
[4]
  TGI: 19.8 µM
[14]
  TGI: 28.9 µM
[5]
  TGI: 28.5 µM
[7]
  TGI: 12.9 µM
[8]
  TGI: 15.7 µM
[9]
  TGI: > 100 µM
[10]
  TGI: 18.2 µM
[11]
  TGI: 25.7 µM
[12]
  TGI: 6.47 µM
[13]
  TGI: 3.51 µM

## CCN(CC)CCCOC(=O)/C=C/c1c(C)[nH]c(=O)[nH]c1=O
[1]
  TGI: > 625 µM
[2]
  TGI: > 625 µM
[3]
  TGI: > 625 µM
[14]
  TGI: > 625 µM
[5]
  TGI: > 625 µM
[6]
  TGI: > 625 µM
[7]
  TGI: > 625 µM
[8]
  TGI: > 625 µM
[9]
  TGI: > 625 µM
[10]
  TGI: > 625 µM
[11]
  TGI: > 625 µM
[12]
  TGI: > 625 µM

## CCCCc1c(C(=O)OC(C)(C)C)cc(C#Cc2cc(C(=O)OC(C)(C)C)c(CCCC)c(C(=O)OC(C)(C)C)c2)cc1C(=O)OC(C)(C)C
[1]
  TGI: > 100 µM
[2]
  TGI: > 100 µM
[4]
  TGI: > 100 µM
[14]
  TGI: > 100 µM
[5]
  TGI: > 100 µM
[6]
  TGI: > 100 µM
[7]
  TGI: > 100 µM
[8]
  TGI: > 100 µM
[10]
  TGI: > 100 µM
[12]
  TGI: > 100 µM
[13]
  TGI: > 100 µM

## CCC1C(c2cccc(OC)c2O)c2cc3c(cc2OC1N1CCCC1)OCO3 (configuration not stated)
[1]
  TGI: 22.8 µM
[2]
  TGI: 50.8 µM
[3]
  TGI: 27 µM
[4]
  TGI: 41.2 µM
[5]
  TGI: 39.5 µM
[7]
  TGI: 40.3 µM
[8]
  TGI: 21.2 µM
[9]
  TGI: 38.7 µM
[11]
  TGI: 89.9 µM
[12]
  TGI: 54.7 µM
[13]
  TGI: 15.9 µM

## COc1ccccc1C1SCC(=O)N1c1ccc(-c2ccc(-n3c(-c4ccccc4)nc4ccccc4c3=O)cc2)cc1 (configuration not stated)
[1]
  TGI: > 100 µM
[2]
  TGI: > 100 µM
[3]
  TGI: > 100 µM
[4]
  TGI: > 100 µM
[5]
  TGI: > 100 µM
[6]
  TGI: > 100 µM
[7]
  TGI: > 100 µM
[8]
  TGI: > 100 µM
[9]
  TGI: > 100 µM
[10]
  TGI: > 100 µM
[11]
  TGI: > 100 µM
[12]
  TGI: > 100 µM
[13]
  TGI: > 100 µM
